Type in all cases: in vivo
Series [1] has as its system Echinochloa oryzacola Vasing. As to the kind of experiment: Test Example 1: herbicidal activity, application before weed generation in submerged conditions (symbol A). Particulars: application herbicide amount 320 g/ha. A digest of the protocol:
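0–5 visual score, 3 wk post-application. Submerged pots, alluvial soil, water 4 cm; seeds sown mixed, rice at 2.5 leaves transplanted. Emulsion diluted to predetermined dose, applied to water surface at sowing. 25–30 °C greenhouse.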

Series [2] has as its system transplanted rice plant. As to the kind of experiment: Test Example 1: effect on crop, application before weed generation in submerged conditions (symbol a). As to conditions: application herbicide amount 320 g/ha. A digest of the protocol: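 Alluvial soil pots flooded to 4 cm water, sown with Echinochloa oryzacola, Scirpus juncoides and Monochoria vaginalis, then transplanted with 2.5 leaf stage rice seedlings; pre-emergence application. Greenhouse 25° C. to 30° C.; scored 0–5 by herbicidal ratio 3 weeks after application.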

For series [3], the system named is Scirpus juncoides. As to the kind of experiment: Test Example 2: herbicidal activity, application during weed generation in submerged conditions (symbol B). Particulars: Table 23; application herbicide amount 320 g/ha; grade 0-5 by criteria of Test Example 1. A digest of the protocol: (§1)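 Read-out: herbicidal effect on each species rated on a visual scale 3 weeks after treatment. Plants were raised together from seed in flooded alluvial soil (4 cm water) at 25° C. to 30° C. and treated at one to two leaves by water-surface application of diluted emulsion.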

Series [4] concerns Monochoria vaginalis. As to the kind of experiment: Test Example 2: herbicidal activity, application during weed generation in submerged conditions (symbol C). As to conditions: Table 23; application herbicide amount 320 g/ha; grade 0-5 by criteria of Test Example 1. A digest of the protocol:
as §1

The test system of series [5] is Cyperus difformis. As to the kind of experiment: Test Example 3: herbicidal effect by foliage application, Wagner pot (symbol E). As to conditions: application herbicide amount 320 g/ha. A digest of the protocol:
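Scoring took place 3 weeks after application, using fixed criteria. Plants had been raised from seed for 14 days at 25 to 30 °C in submerged alluvial soil before a diluted emulsion of the test compound was sprayed uniformly on the leaves.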

The subject of series [6] is directly sowed rice plant. As to the kind of experiment: Test Example 3: effect on crop by foliage application, Wagner pot (symbol b). As to conditions: application herbicide amount 320 g/ha. The method in brief: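 Alluvial soil in a 1/10000-are Wagner pot was flooded to a water depth of 0.1–0.5 cm. Echinochloa crus-galli var. crus-galli, Leptochloa chinensis, Cyperus difformis and rice were sown into it and grown in a greenhouse at 25–30 °C.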

In series [7] the test system is soybean. As to the kind of experiment: Test Example 4: effect on crop by soil treatment (symbol d). Particulars: for d: soybean, effect grade on crop: 320 g/ha. The method in brief:
(§2)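 Grown at 25° C. to 30° C. in a greenhouse, the crops came from seed sown spot-wise in sterilized diluvial soil under roughly 1.5 cm of covering soil.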

The test system of series [8] is rice. As to the kind of experiment: Test Example 4: effect on crop by soil treatment (symbol b). As to conditions: for b: directly sowed rice plant, effect grade on crop: 320 g/ha. A digest of the protocol:
as §2

In series [9] the test system is wheat. As to the kind of experiment: Test Example 4: effect on crop by soil treatment (symbol e). Particulars: for e: wheat, effect grade on crop: 320 g/ha. A digest of the protocol:
as §2

For series [10], the system named is Avena fatua. As to the kind of experiment: Test Example 5: herbicidal effect by foliage application, plastic box (symbol I). As to conditions: 320 g/ha, 3 weeks after application. A digest of the protocol:
(§3)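 Seeds were sown in sterilized diluvial soil, covered with about 1.5 cm of soil and grown 14 days in a greenhouse at 25° C. to 30° C. An emulsifiable formulation diluted in water to a set rate was sprayed over foliage, and injury was scored 3 weeks later.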

Series [11] concerns Lolium multiflorum Lam. As to the kind of experiment: Test Example 5: herbicidal effect by foliage application, plastic box (symbol K). As to conditions: 320 g/ha, 3 weeks after application. A digest of the protocol: as §3
The test system of series [12] is Chenopodium album. As to the kind of experiment: Test Example 5: herbicidal effect by foliage application, plastic box (symbol O). As to conditions: 320 g/ha, 3 weeks after application. The method in brief:
as §3

The test system of series [13] is corn. As to the kind of experiment: Test Example 5: effect on crop by foliage application, plastic box (symbol c). Particulars: 320 g/ha, 3 weeks after application. A digest of the protocol:
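Greenhouse culture at 25° C. to 30° C. followed spot-like sowing into sterilized diluvial soil, with seed covered by roughly 1.5 cm of soil.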

Setting [14] is: application herbicide amount 320 g/ha.

Structures are written as SMILES.

On to `CON=C(C)CC1CC(OC(=O)COc2ccc(C)cc2)=C(c2c(C)cc(C)cc2C)C1=O` (centres unmarked) [1-072], for which the “Herbicidal effect grade, A: Echinochloa oryzacola Vasing.” value in series [1] is 5 (Herbicidal ratio of 90% or more (almost completely withered)). For the same compound, the “Effect grade on crop, a: transplanted rice plant” value in series [2] is listed as 5 (Herbicidal ratio of 90% or more (almost completely withered)). For the same compound, the “Herbicidal effect grade, B: Scirpus juncoides” value (“Herbicidal effect grade, B” below) in series [3] was 3 (Herbicidal ratio of 40% or higher and lower than 70%). For the same compound, in series [4], the “Herbicidal effect grade, C: Monochoria vaginalis” value (“Herbicidal effect grade, C” below) was 0 (Herbicidal ratio of 5% or lower (almost no effect)). Besides, the “herbicidal effect on E, grade 0-5” value in series [5] was 4 (Herbicidal ratio of 70% or higher and lower than 90%). Moreover, the “effect on crop b (directly sowed rice plant), grade 0-5” value (“effect on crop b” below) in series [6] was 5 (Herbicidal ratio of 90% or more (almost completely withered)). Further, in series [7] (setting [14]), the “d (soybean) effect on crop grade” value is 0 (Herbicidal ratio of 5% or lower (almost no effect)). Besides, the “b (directly sowed rice plant) effect on crop grade” value in series [8] (setting [14]) is 5 (Herbicidal ratio of 90% or more (almost completely withered)). Moreover, the “e (wheat) effect on crop grade” value in [9] (setting [14]) was 4 (Herbicidal ratio of 70% or higher and lower than 90%). In addition, the “I: Avena fatua, herbicidal effect grade” value in series [10] is on record as 5 (Herbicidal ratio of 90% or more (almost completely withered)). Moreover, the “K: Lolium multiflorum Lam., herbicidal effect grade” value in series [11] is given as 5 (Herbicidal ratio of 90% or more (almost completely withered)). For the same compound, the “O: Chenopodium album, herbicidal effect grade” value in [12] is 1 (Herbicidal ratio of 5% or higher and lower than 20%). Besides, the “c: corn, effect on crop grade” value in series [13] is reported as 5 (Herbicidal ratio of 90% or more (almost completely withered)).
Regarding `CON=C(C)CC1CC(OC(=O)COc2ccc(C=O)cc2)=C(c2c(C)cc(C)cc2C)C1=O` (centres unmarked) [1-079], in series [1], the “Herbicidal effect grade, A: Echinochloa oryzacola Vasing.” value was 5 (Herbicidal ratio of 90% or more (almost completely withered)). In addition, the “Effect grade on crop, a: transplanted rice plant” value in [2] is on record as 5 (Herbicidal ratio of 90% or more (almost completely withered)). For the same compound, in [3], the “Herbicidal effect grade, B” value was 4 (Herbicidal ratio of 70% or higher and lower than 90%). For the same compound, the “Herbicidal effect grade, C” value in series [4] was 3 (Herbicidal ratio of 40% or higher and lower than 70%). In series [5], the “herbicidal effect on E, grade 0-5” value is 5 (Herbicidal ratio of 90% or more (almost completely withered)). Besides, in series [6], the “effect on crop b” value is 5 (Herbicidal ratio of 90% or more (almost completely withered)). Further, in series [7], the “d: soybean, effect grade on crop” value is 1 (Herbicidal ratio of 5% or higher and lower than 20%). Further, the “b: directly sowed rice plant, effect grade on crop” value (from here on “b: directly sowed rice plant”) in series [8] is 5 (Herbicidal ratio of 90% or more (almost completely withered)). Also, the “e: wheat, effect grade on crop” value in [9] is 4 (Herbicidal ratio of 70% or higher and lower than 90%). For the same compound, the “I: Avena fatua, herbicidal effect (criteria 0-5)” value (from here on “I: Avena fatua … (criteria 0-5)”) in [10] is 5 (Herbicidal ratio of 90% or more (almost completely withered)). Moreover, the “K: Lolium multiflorum Lam., herbicidal effect (criteria 0-5)” value in [11] is reported as 5 (Herbicidal ratio of 90% or more (almost completely withered)). Further, the “O: Chenopodium album, herbicidal effect (criteria 0-5)” value (“O: Chenopodium album … (criteria 0-5)” below) in series [12] is listed as 0 (Herbicidal ratio of 5% or lower (almost no effect)). Further, the “c: corn, effect on crop (criteria 0-5)” value in [13] was 5 (Herbicidal ratio of 90% or more (almost completely withered)).
In the case of `CON=C(C)CC1CC(OC(=O)COc2ccc(C(C)=O)cc2)=C(c2c(C)cc(C)cc2C)C1=O` (centres unmarked) [1-080], in [1], the “Herbicidal effect grade, A: Echinochloa oryzacola Vasing.” value is recorded as 5 (Herbicidal ratio of 90% or more (almost completely withered)). In series [2], the “Effect grade on crop, a: transplanted rice plant” value is given as 5 (Herbicidal ratio of 90% or more (almost completely withered)). Further, in series [3], the “Herbicidal effect grade, B” value is 4 (Herbicidal ratio of 70% or higher and lower than 90%). In series [4], the “Herbicidal effect grade, C” value was 2 (Herbicidal ratio of 20% or higher and lower than 40%). Further, in series [5], the “herbicidal effect on E, grade 0-5” value is 5 (Herbicidal ratio of 90% or more (almost completely withered)). For the same compound, the “effect on crop b” value in series [6] is recorded as 5 (Herbicidal ratio of 90% or more (almost completely withered)). Further, the “d: soybean, effect grade on crop” value in [7] is 1 (Herbicidal ratio of 5% or higher and lower than 20%). Moreover, the “b: directly sowed rice plant” value in series [8] is on record as 5 (Herbicidal ratio of 90% or more (almost completely withered)). The “e: wheat, effect grade on crop” value in series [9] was 4 (Herbicidal ratio of 70% or higher and lower than 90%). The “I: Avena fatua … (criteria 0-5)” value in series [10] is on record as 5 (Herbicidal ratio of 90% or more (almost completely withered)). For the same compound, the “K: Lolium multiflorum Lam., herbicidal effect (criteria 0-5)” value in series [11] is listed as 5 (Herbicidal ratio of 90% or more (almost completely withered)). Also, in series [12], the “O: Chenopodium album … (criteria 0-5)” value was 3 (Herbicidal ratio of 40% or higher and lower than 70%). In addition, the “c: corn, effect on crop (criteria 0-5)” value in series [13] is given as 5 (Herbicidal ratio of 90% or more (almost completely withered)).
On to `CON=C(C)CC1CC(OC(=O)COc2ccc(Br)cc2)=C(c2c(C)cc(C)cc2C)C1=O` (centres unmarked) [1-081], for which the “Herbicidal effect grade, A: Echinochloa oryzacola Vasing.” value in series [1] is given as 5 (Herbicidal ratio of 90% or more (almost completely withered)). Further, the “Effect grade on crop, a: transplanted rice plant” value in series [2] was 5 (Herbicidal ratio of 90% or more (almost completely withered)). Further, the “Herbicidal effect grade, B” value in series [3] is 4 (Herbicidal ratio of 70% or higher and lower than 90%). Also, the “Herbicidal effect grade, C” value in series [4] was 3 (Herbicidal ratio of 40% or higher and lower than 70%). Also, the “herbicidal effect on E, grade 0-5” value in [5] is given as 5 (Herbicidal ratio of 90% or more (almost completely withered)). Also, in series [6], the “effect on crop b” value is 5 (Herbicidal ratio of 90% or more (almost completely withered)). Moreover, the “d: soybean, effect grade on crop” value in series [7] is 1 (Herbicidal ratio of 5% or higher and lower than 20%). For the same compound, in series [8], the “b: directly sowed rice plant” value is given as 5 (Herbicidal ratio of 90% or more (almost completely withered)). Further, the “e: wheat, effect grade on crop” value in series [9] is 4 (Herbicidal ratio of 70% or higher and lower than 90%). Besides, the “I: Avena fatua … (criteria 0-5)” value in series [10] was 5 (Herbicidal ratio of 90% or more (almost completely withered)). Also, in [11], the “K: Lolium multiflorum Lam., herbicidal effect (criteria 0-5)” value is recorded as 5 (Herbicidal ratio of 90% or more (almost completely withered)). Moreover, in series [12], the “O: Chenopodium album … (criteria 0-5)” value was 3 (Herbicidal ratio of 40% or higher and lower than 70%). Also, in series [13], the “c: corn, effect on crop (criteria 0-5)” value is listed as 5 (Herbicidal ratio of 90% or more (almost completely withered)).
As to `CON=C(C)CC1CC(OC(=O)COc2ccc(I)cc2)=C(c2c(C)cc(C)cc2C)C1=O` (centres unmarked) [1-082], the “Herbicidal effect grade, A: Echinochloa oryzacola Vasing.” value in [1] is 5 (Herbicidal ratio of 90% or more (almost completely withered)). In addition, the “Effect grade on crop, a: transplanted rice plant” value in series [2] is 5 (Herbicidal ratio of 90% or more (almost completely withered)). For the same compound, in [3], the “Herbicidal effect grade, B” value is listed as 5 (Herbicidal ratio of 90% or more (almost completely withered)). In addition, in series [4], the “Herbicidal effect grade, C” value was 3 (Herbicidal ratio of 40% or higher and lower than 70%). In addition, in series [5], the “herbicidal effect on E, grade 0-5” value is listed as 5 (Herbicidal ratio of 90% or more (almost completely withered)). For the same compound, the “effect on crop b” value in [6] is given as 5 (Herbicidal ratio of 90% or more (almost completely withered)). Besides, in [7], the “d: soybean, effect grade on crop” value was 2 (Herbicidal ratio of 20% or higher and lower than 40%). For the same compound, the “b: directly sowed rice plant” value in series [8] is on record as 5 (Herbicidal ratio of 90% or more (almost completely withered)). Further, the “e: wheat, effect grade on crop” value in series [9] was 3 (Herbicidal ratio of 40% or higher and lower than 70%). The “I: Avena fatua … (criteria 0-5)” value in [10] is given as 5 (Herbicidal ratio of 90% or more (almost completely withered)). Moreover, the “K: Lolium multiflorum Lam., herbicidal effect (criteria 0-5)” value in [11] was 5 (Herbicidal ratio of 90% or more (almost completely withered)). Moreover, the “O: Chenopodium album … (criteria 0-5)” value in series [12] was 1 (Herbicidal ratio of 5% or higher and lower than 20%). The “c: corn, effect on crop (criteria 0-5)” value in series [13] is given as 5 (Herbicidal ratio of 90% or more (almost completely withered)).

Values taken from patent publication US11000033B2, “Ketone or oxime compound, and herbicide” (NISSAN CHEMICAL CORPORATION, priority 2014, dated 2021).
